The conditions of this test: for 16 hr. RUP, % of CP / Calculated IAP (intestinally available protein), g/100 g distillers grains / RUP digestibility, g/100 g RUP / RUP, % of DG Protein / Undigested CP, % of CP / Undigested CP, % of feed DM: 0.5 h 128° C. autoclave. As for the experimental part: Using a sample of wet distillers grains (“DG”) was obtained from a commercial ethanol plant, treatments were applied in duplicates. The DG was treated with the three levels of DL-methionine shown in Table 1 and heated in an autoclave for 0.5 hour at 128° C. Following heat treatment, samples were dried in a forced oven set at 40° C. Dried samples were composited within treatment and analyzed for RUP and undigested total tract protein using a standard method.

Like-named read-outs stand apart in the source and are kept apart here.

On to `CSCCC(N)C(=O)O` (racemic) [DL-Methionine], for which the “16 hr. RUP, % of CP” value (1.0 wt. % DL-Methionine added to distillers grains) is on record as 69.2 % of CP. Where the note is “1.0 wt. % DL-Methionine”, the “Calculated IAP (intestinally available protein), g/100 g distillers grains” value (“Calculated IAP” below) is on record as 15.7 g/100 g distillers grains; the “RUP digestibility, g/100 g RUP” value is 72.1 g/100 g RUP; the “RUP, % of DG Protein” value is 72.8 % of DG Protein; the “Undigested CP, % of CP” value was 19.3 % of CP. In addition, the “Undigested CP, % of feed DM” value (1.0 wt. % DL-Methionine) is listed as 6.02 % of feed DM. Where the note is “1.5 wt. % DL-Methionine added to distillers grains”, the “16 hr. RUP, % of CP” value was 71.2 % of CP. In addition, where the note is “1.5 wt. % DL-Methionine”, the “Calculated IAP” value is recorded as 15.2 g/100 g distillers grains; the “RUP digestibility, g/100 g RUP” value was found to be 67.8 g/100 g RUP; the “RUP, % of DG Protein” value is reported as 74.8 % of DG Protein; the “Undigested CP, % of CP” value is 22.9 % of CP. Under “1.5 wt. % DL-Methionine”, the “Undigested CP, % of feed DM” value is given as 7.08 % of feed DM. For the same molecule, the “calculated digestibility of RUP, higher compared with Control” value (2% DL-methionine) is given as 13.9%. Also, for the setting “2% DL-methionine sample”, the “total metabolically available protein, higher compared with Control” value is reported as 17%. For the same molecule, where the note is “2.0 wt. % DL-Methionine added to distillers grains”, the “16 hr. RUP, % of CP” value is reported as 67.2 % of CP. Moreover, where the note is “2.0 wt. % DL-Methionine”, the “Calculated IAP” value was 16.0 g/100 g distillers grains; the “RUP digestibility, g/100 g RUP” value worked out at 72.7 g/100 g RUP; the “RUP, % of DG Protein” value is 73.3 % of DG Protein; the “Undigested CP, % of CP” value was 18.3 % of CP. Also, for the setting “2.0 wt. % DL-Methionine”, the “Undigested CP, % of feed DM” value is 5.85 % of feed DM. Further, the “total un-digested protein, lower compared with Control” value (highest level of DL-methionine) is recorded as 28%.
